Experimental data: BindingDB's records for doi:10.1021/cb300655w (Massachusetts Institute of Technology, 2013)

Legend:
TGF-beta receptor type-1 = target: T1, TGF-beta receptor type-1 (Mus musculus, UniProt Q64729)
T1 sequence (Q64729 whole entry): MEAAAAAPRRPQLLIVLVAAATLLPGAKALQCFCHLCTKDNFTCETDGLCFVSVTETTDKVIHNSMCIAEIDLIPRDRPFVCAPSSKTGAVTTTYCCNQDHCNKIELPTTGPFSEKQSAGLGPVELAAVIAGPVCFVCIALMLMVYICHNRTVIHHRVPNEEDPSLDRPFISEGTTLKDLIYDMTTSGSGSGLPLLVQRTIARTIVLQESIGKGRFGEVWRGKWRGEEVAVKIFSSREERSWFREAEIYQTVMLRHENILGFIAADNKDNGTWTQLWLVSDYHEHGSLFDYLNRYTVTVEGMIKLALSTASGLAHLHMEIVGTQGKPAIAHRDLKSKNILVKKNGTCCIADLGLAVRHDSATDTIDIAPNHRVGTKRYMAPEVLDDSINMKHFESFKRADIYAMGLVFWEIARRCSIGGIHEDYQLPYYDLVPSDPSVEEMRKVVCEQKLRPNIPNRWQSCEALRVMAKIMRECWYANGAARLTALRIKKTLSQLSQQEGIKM

Activin receptor type-1B = target: T2, Activin receptor type-1B (Mus musculus, UniProt Q61271)
T2 sequence (Q61271 whole entry): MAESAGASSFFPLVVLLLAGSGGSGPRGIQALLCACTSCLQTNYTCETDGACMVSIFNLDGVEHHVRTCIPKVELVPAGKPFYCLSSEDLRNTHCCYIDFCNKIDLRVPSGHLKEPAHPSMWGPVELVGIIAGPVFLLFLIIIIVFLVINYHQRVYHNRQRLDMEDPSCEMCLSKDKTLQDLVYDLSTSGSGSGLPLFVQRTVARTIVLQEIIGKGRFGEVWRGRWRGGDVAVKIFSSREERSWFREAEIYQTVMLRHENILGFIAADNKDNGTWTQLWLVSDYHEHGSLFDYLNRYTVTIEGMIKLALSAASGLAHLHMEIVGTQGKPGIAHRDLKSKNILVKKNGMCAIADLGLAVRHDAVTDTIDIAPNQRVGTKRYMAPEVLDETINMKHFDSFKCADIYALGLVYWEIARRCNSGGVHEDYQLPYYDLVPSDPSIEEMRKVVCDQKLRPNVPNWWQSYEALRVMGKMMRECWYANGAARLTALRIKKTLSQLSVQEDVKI

[1] = target: Bone morphogenetic protein receptor type-1A (Mus musculus, UniProt P36895)
Sequence of Bone morphogenetic protein receptor type-1A (P36895 whole entry): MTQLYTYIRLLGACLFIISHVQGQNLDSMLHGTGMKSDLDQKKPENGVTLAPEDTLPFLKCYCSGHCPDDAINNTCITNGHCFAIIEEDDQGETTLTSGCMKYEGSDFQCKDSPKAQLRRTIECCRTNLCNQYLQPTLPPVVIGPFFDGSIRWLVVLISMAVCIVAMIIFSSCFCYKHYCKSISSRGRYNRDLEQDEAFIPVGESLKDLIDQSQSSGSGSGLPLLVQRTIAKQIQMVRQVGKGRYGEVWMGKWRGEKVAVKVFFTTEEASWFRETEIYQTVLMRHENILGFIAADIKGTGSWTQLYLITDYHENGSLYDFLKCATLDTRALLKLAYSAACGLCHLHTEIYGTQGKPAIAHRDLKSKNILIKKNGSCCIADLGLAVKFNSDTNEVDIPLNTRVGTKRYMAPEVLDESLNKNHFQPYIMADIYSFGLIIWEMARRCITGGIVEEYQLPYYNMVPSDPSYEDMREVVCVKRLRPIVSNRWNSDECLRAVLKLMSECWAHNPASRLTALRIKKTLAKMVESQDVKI

[2] = target: T3, Serine/threonine-protein kinase receptor R3 (Mus musculus, UniProt Q61288)
T3 sequence (Q61288 whole entry): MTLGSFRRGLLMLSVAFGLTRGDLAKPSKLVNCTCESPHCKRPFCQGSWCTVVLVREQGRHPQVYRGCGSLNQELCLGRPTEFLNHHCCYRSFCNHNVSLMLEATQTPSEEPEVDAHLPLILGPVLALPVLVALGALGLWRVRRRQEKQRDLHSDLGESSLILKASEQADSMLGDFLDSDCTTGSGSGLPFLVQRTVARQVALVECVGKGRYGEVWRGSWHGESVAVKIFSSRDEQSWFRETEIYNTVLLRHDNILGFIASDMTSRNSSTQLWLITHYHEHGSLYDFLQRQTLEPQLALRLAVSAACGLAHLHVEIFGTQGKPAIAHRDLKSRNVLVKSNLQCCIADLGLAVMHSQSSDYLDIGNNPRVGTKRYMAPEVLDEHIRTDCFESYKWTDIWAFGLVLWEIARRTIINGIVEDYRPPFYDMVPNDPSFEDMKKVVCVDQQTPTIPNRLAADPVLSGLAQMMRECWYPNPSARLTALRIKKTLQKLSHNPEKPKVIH

Activin receptor type-1 = target: T4, Activin receptor type-1 (Mus musculus, UniProt P37172)
T4 sequence (P37172 whole entry): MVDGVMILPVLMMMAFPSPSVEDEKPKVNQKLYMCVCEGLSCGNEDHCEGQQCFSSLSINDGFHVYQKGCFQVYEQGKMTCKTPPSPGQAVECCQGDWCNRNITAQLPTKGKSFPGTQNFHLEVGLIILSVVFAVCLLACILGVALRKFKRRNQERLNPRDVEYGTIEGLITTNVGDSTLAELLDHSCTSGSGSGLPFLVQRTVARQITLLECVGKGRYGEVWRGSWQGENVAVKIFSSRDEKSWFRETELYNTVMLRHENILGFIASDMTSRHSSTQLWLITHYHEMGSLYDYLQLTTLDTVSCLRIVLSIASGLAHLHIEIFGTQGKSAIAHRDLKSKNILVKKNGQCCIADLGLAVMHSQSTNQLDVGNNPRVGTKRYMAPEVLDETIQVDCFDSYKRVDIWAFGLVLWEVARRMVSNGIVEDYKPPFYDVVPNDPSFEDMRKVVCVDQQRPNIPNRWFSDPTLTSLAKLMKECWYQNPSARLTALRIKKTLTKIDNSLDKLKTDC

Row | IC50 [1] [nM] | IC50 [2] [nM] | SMILES | IC50 (TGF-beta receptor type-1) [nM] | IC50 (Activin receptor type-1B) [nM] | IC50 (Activin receptor type-1) [nM]
1 | 25.8 | 3.65 | COc1cc(-c2cc(-c3cccc(O)c3)cnc2N)cc(OC)c1OC [K02288a] |  |  | 
2 | 14.3 | 1.48 | c1ccc2c(-c3cnn4cc(-c5ccc(N6CCNCC6)cc5)cnc34)ccnc2c1 [LDN-193189] | 117 |  | 
3 | 85.8 | 2.4 | c1cc(-c2cnn3cc(-c4ccc(N5CCNCC5)cc4)cnc23)c2cccnc2c1 [LDN-212854] | 9280 | 2130 | 

Row | SMILES | IC50 [1] [nM] | IC50 [2] [nM] | IC50 (TGF-beta receptor type-1) [nM] | IC50 (Activin receptor type-1B) [nM] | IC50 (Activin receptor type-1) [nM]
4 | c1cc(-c2cnn3cc(-c4ccc(OCCN5CCCCC5)cc4)cnc23)ccn1 | 222 | 19.5 | 7830 | 3080 | 
5 | CC(C)Oc1ccc(-c2cnc3c(-c4ccnc5ccccc45)cnn3c2)cc1 [4-(6-(4-isopropoxyphenyl)pyrazolo[1,5-a]pyrimidin-3-yl)quinoline] | 241 | 77.9 | 5970 | 11000 | 12.6
